Experimental data: US4298735A, “Folic acid derivatives” (Union Carbide Corporation, priority 1979, dated 1981)

What was measured:
whole milk folate binder = whole milk folate binder (Bos taurus, UniProt P02702); test: Folate competitive protein binding (CPB) radioassay; conditions: for dose response curves generated using pteroyltyrosine [125I] as label: at high pH compared with lower pH
Method: The use of the Centria® analytical system, Union Carbide Corporation, in this example, is meant to be illustrative and other methods, both automated and manual, obvious to those skilled in the clinical diagnostic art are also within the scope of this invention.
Briefly, the Centria® system is a tri-modular instrument in which reagents are pipetted on to a multi-well transfer disk and mixed centrifugally with standards or patients' samples. After a suitable incubation period, the components are separated by a centrifugal elution of the bound and free fractions and the bound fractions counted three at a time.
Folic acid and N^5 -methyltetrahydrofolic acid standards in the range 0-20 nanograms/milliliter were prepared in 0.05 M sodium borate, pH 9.3 containing 0.1% human serum albumin. The whole milk binder was prepared according to the method of Rothenberg et al., ^(3) and dissolved in sodium borate, pH 9.3 containing 0.1% human serum albumin
(50 microliters, 20,000 cpm) plus 85 microliters of water with the limited number of binding sites contained in a 200 microliter solution of whole milk folate binder. The binding reactions may be shown as follows:
A gamma counter which counts three of the 36 positions at a time for one minute, so constructed that only the eluate bottom portion of the test tubes fits into the counter, was then used to count all samples. Sequential counting of the tubes thus required about 12 minutes. A small computer with printout capability then printed out the data after completion of the cycle.

[1] = Storage stability of the radioiodinated label; assay type: physicochemical; conditions: stored in a 50% aqueous propylene glycol solution, ten-week period
Source text: Radioiodination of biological compounds frequently leads to marked chemical instability and subsequent degradation of the radiolabel. This problem is often accentuated in the radiolabel when the materials to be radioiodinated are known to be sensitive to oxygen, light or extremes in pH, as is the case with folic acid and some derivatives.
The reaction mixture was applied to a 1×20 cm Sephadex G25, fine, (Pharmacia Fine Chemicals, Uppsala, Sweden) column hydrated with distilled water and equilibrated with 0.1 M potassium phosphate, pH 7.5. The column was eluted with 0.1 M potassium phosphate buffer and 3 ml fractions collected. The product "peak" fractions 32-34 were collected, diluted 1:1 with propylene glycol and stored below 0° C.

carboxypeptidase A = test: Enzymatic hydrolysis of pteroyltyrosine followed by UV; assay type: biochemical; conditions: 0.025 M Tris-HCl, 2 mM zinc chloride, pH 7.3, two hours, ambient temperature
Method: Two milliliters of a solution of pteroyltrosine (0.75 mmoles/ml) in 0.025 M Tris-HCl containing 2 mM zinc chloride, pH 7.3 were diluted to 10 ml with distilled water. A portion of this solution (2 ml) was placed in a 1 cm cuvette and in another was placed 2 ml of distilled water. To each of the cuvettes was added 50 μl of a solution of 100 μl carboxypeptidase A suspension (Aldrich chemical, lot 060637) diluted with 0.9 ml of 10% lithium chloride.
The time course of the reaction was followed spectrophotometrically (uv) over a period of two hours at ambient temperature. An increase and shift in max from 280 to 277 nm and a marked decrease in absorption at 220 nm was observed. Two isosbestic points at 242 and 282 nm were visible.

Sequence of whole milk folate binder (P02702 20-234): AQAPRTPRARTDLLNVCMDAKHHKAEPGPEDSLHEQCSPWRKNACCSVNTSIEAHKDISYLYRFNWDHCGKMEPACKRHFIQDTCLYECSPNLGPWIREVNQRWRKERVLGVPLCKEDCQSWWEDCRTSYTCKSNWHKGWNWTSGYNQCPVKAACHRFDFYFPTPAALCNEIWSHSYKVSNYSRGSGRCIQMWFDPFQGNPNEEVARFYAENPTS

CN1c2c(nc(N)[nH]c2=O)NCC1CNc1ccc(C(=O)N[C@@H](CCC(=O)O)C(=O)O)cc1 (some centres unmarked) [N^5 -methyl THF, N-5-methyltetrahydrofolic acid]
dose response curves generated using pteroyltyrosine [125I] as label (whole milk folate binder): more nearly coincident

Nc1nc2ncc(CNc3ccc(C(=O)N[C@@H](CCC(=O)O)C(=O)O)cc3)nc2c(=O)[nH]1 [folic acid]
dose response curves generated using pteroyltyrosine [125I] as label (whole milk folate binder): more nearly coincident

Nc1nc(O)c2nc(CNc3ccc(C(=O)N[C@@H](Cc4ccc(O)c([125I])c4)C(=O)O)cc3)cnc2n1 [pteroyltyrosine [^125 I]]
performance as radiolabel in CPB radioassay for folic acid (whole milk folate binder; folic acid concentration range of 0-20 ng/ml): effective radiolabel | stability of radioiodinated product (assay performance on storage) [1]: no deterioration in assay performance

Nc1nc2ncc(CNc3ccc(C(=O)N[C@@H](Cc4ccc(O)cc4)C(=O)O)cc3)nc2c(=O)[nH]1 [pteroyltyrosine, Pteroyl-L-Tyrosine]
hydrolysis by carboxypeptidase A (UV time course, final spectrum) (carboxypeptidase A): final spectrum was very similar to that of pteroic acid
